In patent US20230123334A1, “AMINO LIPID COMPOUND, PREPARATION METHOD THEREFOR, AND APPLICATION THEREOF” (SHENZHEN SHENXIN BIOTECHNOLOGY CO., LTD., priority 2020, published 2023):

tested on: HEK293 cells; assay: Preliminary screening as DNA vectors, GFP transfection of HEK293 cells; type: cell-based; conditions: amino lipid/DOPE liposome with 75 ng plasmid DNA (psin-EGFP-IRES-Puro); number of GFP-expressing cells divided by total nuclei (Hoechst)
In short: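 HEK293 cells in DMEM/10% FBS transfected with 75 ng EGFP plasmid per well complexed with amino lipid/DOPE liposomes in pH 5.6 sodium acetate. Hoechst nuclear stain added 20-24 h post-transfection, then cells cultured another 20-24 h. Confocal imaging gives GFP-positive cells as % of total nuclei.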

Structure (SMILES) | Absolute DNA transfection efficiency in HEK293 cells
CCCCCCCCCCCCCCCCNc1nc(NCCCN2CCN(C)CC2)nc(SCCCCCCC)n1 [S7N16 D9] | 12.9%
CCCCCCCCCCCCSc1nc(NCCCN(C)C)nc(SCCCCCCC)n1 [S7S12 D6] | 11.7%
CCCCCCCCCCCCNc1nc(NCCN2CCCC2)nc(SCCCCCCC)n1 [S7N12 D3] | 17.4%
CCCCCCCCCCCCCNc1nc(NCCN(CC)CC)nc(SCCCCCCCCCCCC)n1 [S12N13 D7] | 12.9%
CCCCCCCCCCCCCCCNc1nc(NCCCN(C)C)nc(SCCCCCCCCCC)n1 [S10N15 D6] | 9.1%
CCCCCCCCCCCCCNc1nc(NCCN(C)C)nc(SCCCCCCCCC)n1 [S9N13 D1] | 25.0%
CCCCCCCCCCSc1nc(NCCCCCCC)nc(NCCCN(C)C)n1 [S10N7 D6] | 6.2%
CCCCCCCCCCCSc1nc(NCCCCCCCC)nc(NCCN(CC)CC)n1 [S11N8 D7] | 10.1%
CCCCCCCCCCCCCCSc1nc(NCCCCCCCCCCC)nc(NCCCN2CCN(C)CC2)n1 [S14N11 D9] | 10.2%
CCCCCCCCCCCCCCSc1nc(NCCCCCCCCCCCC)nc(NCCN2CCCC2)n1 [S14N12 D3] | 21.0%
CCCCCCCCCCCCNc1nc(NCCN2CCN(C)CC2)nc(SCCCCCCCCCCCC)n1 [S12N12 D5] | 3.5%
CCCCCCCCCCCCCNc1nc(NCCCN2CCN(C)CC2)nc(SCCCCCC)n1 [S6N13 D9] | 38.3%
CCCCCCCCCCCCN(CCCCCCCCCCCC)c1nc(NCC2CCN(C)CC2)nc(SCCCCCCCCC)n1 [S9^2N12 D10] | 1.1%
CCCCCCCCNc1nc(NCCN2CCCC2)nc(SCCCCCCC)n1 [S7N8 D3] | 9.3%
CCCCCCCCCCCSc1nc(NCCCCCC)nc(NCCCN2CCOCC2)n1 [S11N6 D8] | 13.3%
CCCCCCCCCCCCCCCCCCSc1nc(NCC2CCN(C)CC2)nc(SCCCCCCC)n1 [S7S18 D10] | 48.9%
CCCCCCCCCCCCCCCCNc1nc(NCCN2CCN(C)CC2)nc(SCCCCCCCCCC)n1 [S10N16 D5] | 3.1%
CCCCCCCCCCCSc1nc(NCCN2CCOCC2)nc(SCCCCCC)n1 [S6S11 D2] | 18.7%
CCCCCCCCCCCCCCSc1nc(NCCCCCCC)nc(NCCCN2CCN(C)CC2)n1 [S14N7 D9] | 16.1%
CCCCCCCCCCCCCCCCCCSc1nc(NCCCCCCCCCCCCCCCC)nc(NCCCN(C)C)n1 [S18N16 D6] | 0.0%
CCCCCCCCCCCSc1nc(NCCCN2CCOCC2)nc(SCCCCCCCC)n1 [S8S11 D8] | 15.3%
CCCCCCCCCCCSc1nc(NCCN(C)C)nc(SCCCCCCC)n1 [S7S11 D1] | 10.8%
CCCCCCCCCCCCCCCCCCNc1nc(NCCN2CCOCC2)nc(SCCCCCCCCCC)n1 [S10N18 D2] | 2.1%
CCCCCCCCCCCSc1nc(NCCCCCCCC)nc(NCCN2CCOCC2)n1 [S11N8 D2] | 18.6%
CCCCCCCCCCCCCCCCCCNc1nc(NCCCN(C)C)nc(SCCCCCCCCCC)n1 [S10N18 D6] | 7.8%

Structure (SMILES) | Absolute DNA transfection efficiency in HEK293 cells
CCCCCCCCCCCCN(CCCCCCCCCCCC)c1nc(NCCN2CCOCC2)nc(SCCCCCC)n1 [S6^2N12 D2] | 0.0%
CCCCCCCCCCCCNc1nc(NCCCN2CCN(C)CC2)nc(SCCCCCC)n1 [S6N12 D9] | 38.8%
CCCCCCCCCSc1nc(NCCCCCCC)nc(NCC2CCN(C)CC2)n1 [S9N7 D10] | 9.3%
CCCCCCCCCCCCCCCNc1nc(NCCCN2CCN(C)CC2)nc(SCCCCCCC)n1 [S7N15 D9] | 17.6%
CCCCCCCCCCCCCCCNc1nc(NCC2CCN(C)CC2)nc(SCCCCCC)n1 [S6N15 D10] | 31.1%
CCCCCCCCCCCSc1nc(NCCCCCCCC)nc(NCCN2CCCCC2)n1 [S11N8 D4] | 5.9%
CCCCCCCCCNc1nc(NCCN(C)C)nc(SCCCCCCC)n1 [S7N9 D1] | 28.8%
CCCCCCCCCCCSc1nc(NCCN(CC)CC)nc(SCCCCCCCC)n1 [S8S11 D7] | 10.3%
CCCCCCCCCCCCCCCCCCSc1nc(NCCN2CCCCC2)nc(SCCCCCCC)n1 [S7S18 D4] | 8.3%
CCCCCCCNc1nc(NCCCN2CCOCC2)nc(SCCCCCC)n1 [S6N7 D8] | 0.0%
CCCCCCCCCCCCCCCNc1nc(NCCN2CCCC2)nc(SCCCCCCCC)n1 [S8N15 D3] | 9.9%
CCCCCCCCCCCCCCCNc1nc(NCCN2CCN(C)CC2)nc(SCCCCCCCCCCCC)n1 [S12N15 D5] | 0.2%
CCCCCCCCCCCCCCCSc1nc(NCCN2CCCCC2)nc(SCCCCCC)n1 [S6S15 D4] | 7.9%
CCCCCCCCCSc1nc(NCCN(C)C)nc(SCCCCCCC)n1 [S7S9 D1] | 10.8%
CCCCCCCCCCCCCCCCSc1nc(NCCCCCCCCCCCCCCC)nc(NCC2CCN(C)CC2)n1 [S16N15 D10] | 0.2%
CCCCCCCCCCCCCCCCSc1nc(NCCCCCCCCCCCCC)nc(NCCN2CCOCC2)n1 [S16N13 D2] | 0.0%
CCCCCCCCCSc1nc(NCCCN(C)C)nc(SCCCCCC)n1 [S6S9 D6] | 7.1%
CCCCCCCCCCCSc1nc(NCCCCCCCCC)nc(NCCN(C)C)n1 [S11N9 D1] | 12.1%
CCCCCCNc1nc(NCCCN2CCN(C)CC2)nc(SCCCCCC)n1 [S6N6 D9] | 0.0%
CCCCCCCCCCCCNc1nc(NCCCN(C)C)nc(SCCCCCCCC)n1 [S8N12 D6] | 78.3%
CCCCCCCCCCSc1nc(NCCCN2CCOCC2)nc(SCCCCCCC)n1 [S7S10 D8] | 18.0%
CCCCCCCCCCCCCNc1nc(NCCN2CCOCC2)nc(SCCCCCCCC)n1 [S8N13 D2] | 19.7%
CCCCCCCCCCCCSc1nc(NCCN(CC)CC)nc(SCCCCCCCC)n1 [S8S12 D7] | 9.3%
CCCCCCCCCCCCCCCCNc1nc(NCC2CCN(C)CC2)nc(SCCCCCCCCCCCCCCC)n1 [S15N16 D10] | 0.3%
CCCCCCCCCCCCCCCCCCSc1nc(NCCN(C)C)nc(N(CCCCCCCCCCCC)CCCCCCCCCCCC)n1 [S18^2N12 D1] | 0.0%

Structure (SMILES) | Absolute DNA transfection efficiency in HEK293 cells
CCCCCCCCCCSc1nc(NCCCN(C)C)nc(SCCCCCCCC)n1 [S8S10 D6] | 9.3%
CCCCCCCCCCSc1nc(NCCCN2CCN(C)CC2)nc(SCCCCCC)n1 [S6S10 D9] | 7.9%
CCCCCCCCCCCCCCSc1nc(NCCCCCCCC)nc(NCCN2CCOCC2)n1 [S14N8 D2] | 12.9%
CCCCCCCCSc1nc(NCCN(CC)CC)nc(SCCCCCC)n1 [S6S8 D7] | 15.0%
CCCCCCCCCCCCSc1nc(NCCCN2CCN(C)CC2)nc(SCCCCCC)n1 [S6S12 D9] | 9.4%
CCCCCCCCCCCCCCSc1nc(NCCCCCCCCCCC)nc(NCCN2CCOCC2)n1 [S14N11 D2] | 12.5%
CCCCCCCCCCCNc1nc(NCCN2CCOCC2)nc(SCCCCCCC)n1 [S7N11 D2] | 31.1%
CCCCCCCCCCCCCCCSc1nc(NCCCCCCC)nc(NCCCN2CCN(C)CC2)n1 [S15N7 D9] | 17.1%
CCCCCCCCCNc1nc(NCCN2CCN(C)CC2)nc(SCCCCCCCCC)n1 [S9N9 D5] | 47.4%
CCCCCCCCCSc1nc(NCC2CCN(C)CC2)nc(SCCCCCC)n1 [S6S9 D10] | 18.0%
CCCCCCCCCCCCCNc1nc(NCCCN2CCN(C)CC2)nc(SCCCCCCCCCCCC)n1 [S12N13 D9] | 2.1%
CCCCCCCCCCCCCCCNc1nc(NCCCN(C)C)nc(SCCCCCCCCCCCC)n1 [S12N15 D6] | 0.9%
CCCCCCCCCCCCCCCCCCSc1nc(NCCCCCCCCCCCCCCCC)nc(NCCN2CCN(C)CC2)n1 [S18N16 D5] | 0.2%
CCCCCCCCCCCCSc1nc(NCCN2CCN(C)CC2)nc(SCCCCCCCC)n1 [S8S12 D5] | 24.8%
CCCCCCCCCCCCN(CCCCCCCCCCCC)c1nc(NCCN(C)C)nc(SCCCCCCCCCCC)n1 [S11^2N12 D1] | 0.0%
CCCCCCCCCCCCCCSc1nc(NCCCN(C)C)nc(SCCCCCC)n1 [S6S14 D6] | 21.9%
CCCCCCCCCCCCCCCCSc1nc(NCCCCCC)nc(NCC2CCN(C)CC2)n1 [S16N6 D10] | 14.5%
CCCCCCCCCCCCCCCCCCSc1nc(NCCCN2CCN(C)CC2)nc(SCCCCCCC)n1 [S7S18 D9] | 13.1%
CCCCCCCCCCCNc1nc(NCCCN2CCN(C)CC2)nc(SCCCCCC)n1 [S6N11 D9] | 21.1%
CCCCCCCCCCCCSc1nc(NCCN2CCOCC2)nc(SCCCCCCC)n1 [S7S12 D2] | 18.0%
CCCCCCCCCCCCCCCSc1nc(NCCN2CCOCC2)nc(SCCCCCCC)n1 [S7S15 D2] | 24.0%
CCCCCCCCCCCCSc1nc(NCCCCCC)nc(NCCCN2CCN(C)CC2)n1 [S12N6 D9] | 0.3%
CCCCCCCCCCCCN(CCCCCCCCCCCC)c1nc(NCCN(CC)CC)nc(SCCCCCCCCCCC)n1 [S11^2N12 D7] | 0.1%
